Columns and labels:
pancreatic cancer cells = assay: Test Example 1: pancreatic cancer cells transplanted into BALB/c nude mouse, tumor volume and body weight; type: in vivo; conditions: 4.5 mg/kg/day × 14 days, subcutaneous continuous infusion
Method: 5×10^6 cells of pancreatic cancer cells were transplanted into the right abdomen of a BALB/c nude mouse, and after 7 days, at the time point at which the average tumor size reached 100 mm^3, drug administration was initiated. Up to 29 days from the time of drug administration, the body weight of the mouse and the tumor volume were measured. The results are presented in FIG. 11, FIG. 12, and Table 1. Subcutaneous continuous infusion of 1-(2′-cyano-2′-deoxy-β-D-arabinofuranosyl)cytosine hydrochloride (DFP-10917) at a dose of 4.5 mg/kg/day was continuously performed for two weeks using a micropump embedded in the body of the mouse. In contrast, Compound (1a) was intravenously administered once a week at a dose of 100 mg/kg, 200 mg/kg, or 300 mg/kg. The dosage of this Compound (1a) is administration once a week at a dose of 2.4 mg/kg, 4.8 mg/kg, or 7.2 mg/kg, as converted to […]. For the control, a buffer solution (pH=5.0) of sodium acetate was administered.

[1] = system: Human lung cancer cell A549 cells; assay: Test Example 5 (second): human lung cancer cell A549 transplanted into nude mouse, Tables 5 and 6; type: in vivo, BALB/c nude mouse; conditions: once a day, for 2 weeks
Source text: Human lung cancer cell A549 cells were transplanted into the right abdomen of a BALB/c nude mouse, and after 11 days, at the time point at which the average tumor size reached 200 mm^3, drug administration was initiated.

[2] = system: human breast cancer cell BT474; assay: Test Example 4: human breast cancer cell BT474 transplanted into nude mouse; type: in vivo, BALB/c nude mouse; conditions: 100 mg/kg once a week, total dosage 200 mg/kg
Method: Compound (1a) was intravenously administered once a week at a dose of 200 mg/kg (the amount as converted to DFP-10917 was 4.8 mg/kg), and pemetrexed, which is a standard drug for lung cancer, was intraperitoneally administered once a week at a dose of 300 mg/kg. For the control, physiological saline was intravenously administered once a week. The observation was made for two weeks (administered two times in total). 1×10^7 cells of human breast cancer cell BT474 were transplanted into the right abdomen of a BALB/c nude mouse, and drugs were administered in the same manner as in Test Example 3. DFP-10917 and Compound (1a) were intravenously administered once a week, two times in total. For the control, physiological saline was administered once a week.

[3] = system: human pancreatic cancer cell Panc-1; assay: Test Example 5: human pancreatic cancer cell Panc-1 transplanted into nude mouse; type: in vivo, BALB/c nude mouse; conditions: 100 mg/kg iv, repeated four times, total dosage 400 mg/kg
Method: Compound (1a) was intravenously administered once a week at a dose of 200 mg/kg (the amount as converted to DFP-10917 was 4.8 mg/kg), and pemetrexed, which is a standard drug for lung cancer, was intraperitoneally administered once a week at a dose of 300 mg/kg. For the control, physiological saline was intravenously administered once a week. The observation was made for two weeks (administered two times in total). 5×10^6 cells of human pancreatic cancer cell Panc-1 were transplanted into the right abdomen of a BALB/c nude mouse, and drugs were administered in the same manner as in Test Example 3. Compound (1g) was intravenously administered once a week, two times in total, or twice a week. Gemcitabine was administered such that 100 mg/kg was administered in four divided portions over 3 days, and this intravenous administration was repeated four times in total. For the control, physiological saline was administered once a week.

[4] = system: human breast cancer cell BT474; assay: Test Example 6: human breast cancer cell BT474 transplanted into nude mouse; type: in vivo, BALB/c nude mouse; conditions: 5 mg/kg iv, once a week, for 2 weeks
Method: 1×10^7 cells of human breast cancer cell BT474 were transplanted into the right abdomen of a BALB/c nude mouse, and when the tumor volume reached 100 to 150 mm^3, drugs were administered. The administration was implemented once a week for two weeks.

[5] = system: human lung cancer cell A549; assay: Test Example 3: human lung cancer cell A549 transplanted into nude mouse; type: in vivo, BALB/c nude mouse; conditions: 300 mg/kg intraperitoneally once a week, total dosage 600 mg/kg, two weeks
Method: 5×10^6 cells of human lung cancer cell A549 were transplanted into the right abdomen of a BALE/c nude mouse, and after 14 days, at the time at which the average tumor size reached 127 mm^3, drug administration was initiated. Compound (1a) was intravenously administered once a week at a dose of 200 mg/kg (the amount as converted to DFP-10917 was 4.8 mg/kg), and pemetrexed, which is a standard drug for lung cancer, was intraperitoneally administered once a week at a dose of 300 mg/kg. For the control, physiological saline was intravenously administered once a week. The observation was made for two weeks (administered two times in total).

## Cl.N#C[C@H]1[C@H](O)[C@@H](CO)O[C@H]1n1ccc(N)nc1=O [DFP-10917, 1-(2′-cyano-2′-deoxy-β-D-arabinofuranosyl)cytosine hydrochloride]
Pancreatic cancer cells
  TGI (D 29, %) tumor growth inhibition: 37.7%
Pancreatic cancer cells; Mean ± SEM
  Tumor Volume (D 29, mm^3): 917 ± 72 mm^3

## CCNCCNC(=O)c1c(C)[nH]c(/C=C2\C(=O)Nc3ccc(F)cc32)c1C [De-ethylated form of sunitinib]
[1]; 50 mg/kg po
  TGI (D 29, %): 43.1%
  Tumor Volume (D 29, mm^3): 687 ± 103 mm^3

## Nc1ccn([C@@H]2O[C@H](CO)[C@@H](O)C2(F)F)c(=O)n1 [Gemcitabine, gemcitabine]
[2]
  TGI (tumor growth inhibition): 43
  Tumor Volume: 525 ± 95
[3]
  TGI (tumor growth inhibition): 63.6
[3]; in mm³ (unit assumed)
  Tumor Volume: 370 ± 37

## CS(=O)(=O)CCNCc1ccc(-c2ccc3ncnc(Nc4ccc(OCc5cccc(F)c5)c(Cl)c4)c3c2)o1 [Lapatinib, lapatinib]
[1]; 100 mg/kg po
  TGI (D 29, %): 25.6%
  Tumor Volume (D 29, mm^3): 898 ± 120 mm^3

## CC(=O)O[C@H]1C(=O)[C@@]2(C)[C@H]([C@H](OC(=O)c3ccccc3)[C@]3(O)C[C@H](OC(=O)[C@H](O)[C@@H](NC(=O)c4ccccc4)c4ccccc4)C(C)=C1C3(C)C)[C@]1(OC(C)=O)CO[C@@H]1C[C@@H]2O [Paclitaxel, paclitaxel]
[4]
  TGI (D 23, %) tumor growth inhibition ratio: 29.8%
  Tumor Volume (D 23, mm^3): 275 ± 39 mm^3

## Nc1nc2[nH]cc(CCc3ccc(C(=O)N[C@@H](CCC(=O)O)C(=O)O)cc3)c2c(=O)[nH]1 [Pemetrexed, pemetrexed]
[5]
  TGI (tumor growth inhibition): 30
[5]; in mm³
  Tumor Volume: 818 ± 44

— patent publication US10111955B2, “PEG derivative” (priority 2014, dated 2018)
